Reference: patent US8044208B2 (Sanofi-Aventis, priority 2005, dated 2011)

Biological target: T1, TAFIa (Homo sapiens, UniProt Q96IY4)
T1 construct: purchased American Diagnostica 874TAFIA
T1 sequence (Q96IY4 115-423): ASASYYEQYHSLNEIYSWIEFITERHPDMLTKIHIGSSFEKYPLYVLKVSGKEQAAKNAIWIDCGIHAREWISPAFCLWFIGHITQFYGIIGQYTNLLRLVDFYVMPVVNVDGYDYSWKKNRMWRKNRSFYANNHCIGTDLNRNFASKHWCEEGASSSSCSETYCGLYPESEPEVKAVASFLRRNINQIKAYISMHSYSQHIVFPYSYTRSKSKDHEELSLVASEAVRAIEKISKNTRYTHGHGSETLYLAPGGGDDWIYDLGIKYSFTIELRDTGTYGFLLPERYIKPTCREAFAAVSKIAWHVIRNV
Test: TAFIa enzyme assay (Actichrome plasma TAFI activity kit)
Type: biochemical
Conditions: 15 min preincubation at room temperature, read at 420 nm, duplicate determination
Method: The prepared substances were tested for TAFIa inhibition using the Actichrome plasma TAFI activity kit from American Diagnostica (Pr. No. 874). This entailed adding 29 μl of assay buffer (20 mM Hepes, 150 mM NaCl, pH 7.4) and 10 μl of TAFIa (American Diagnostica Pr. No. 874TAFIA; […]) to 1 μl of 5 mM DMSO solution of the substance and incubating in a 96 half-well microtiter plate at room temperature for 15 minutes. The enzymic reaction was started by adding 10 μl of TAFIa developer (prediluted 1:2 with water). The time course of the reaction was followed at 420 nm in a microtiter plate reader (SpectraMax plus 384; Molecular Devices) for 15 minutes. The IC50 values were calculated from the averaged values (duplicate determination) of serial dilutions of the substance with the aid of the Software Grafit 4 (Erithacus Software, UK).

Row | SMILES | IC50 [µM]
1 | COc1ccc(-c2cc(Cn3cnc(C(Cc4ccc(N)nc4)C(=O)O)c3)no2)cc1 (centres unmarked) [Example 5, 3-(6-Aminopyridin-3-yl)-2-{1-[5-(4-methoxyphenyl)isoxazol-3-ylmethyl]-1H-imidazol-4-yl}propionic acid] | 0.104
2 | Nc1ccc(CC(C(=O)O)c2cn(Cc3noc(-c4ccc(C(F)(F)F)cc4)n3)cn2)cn1 (centres unmarked) [Example 10, 3-(6-Aminopyridin-3-yl)-2-{1-[5-(4-trifluoromethylphenyl)-[1,2,4]oxadiazol-3-ylmethyl]-1H-imidazol-4-yl}propionic acid] | 0.258
3 | COc1ccc(-c2nc(Cn3cnc(C(Cc4ccc(N)nc4)C(=O)O)c3)no2)cc1 (centres unmarked) [Example 15] | 0.223
4 | COc1ccc(-c2nnc(Cn3cnc(C(Cc4ccc(N)nc4)C(=O)O)c3)s2)cc1 (centres unmarked) [Example 22, 3-(6-Aminopyridin-3-yl)-2-{1-[5-(4-methoxyphenyl)-[1,3,4]thiadiazol-2-ylmethyl]-1H-imidazol-4-yl}propionic acid] | 0.078
5 | Nc1ccc(CC(C(=O)O)c2cn(Cc3nnc(C4CC4)s3)cn2)cn1 (centres unmarked) [Example 12, 3-(6-Aminopyridin-3-yl)-2-[1-(5-cyclopropyl-[1,3,4]thiadiazol-2-ylmethyl)-1H-imidazol-4-yl]propionic acid] | 0.03
6 | CCC(C)c1ccc(-c2cc(Cn3cnc(C(Cc4ccc(N)nc4)C(=O)O)c3)no2)cc1 (centres unmarked) [Example 46, 3-(6-Aminopyridin-3-yl)-2-{1-[5-(4-sec-butylphenyl)isoxazol-3-ylmethyl]-1H-imidazol-4-yl}propionic acid] | 0.003
7 | CC(C)(C)c1ccc(-c2noc(Cn3cnc(C(Cc4ccc(N)nc4)C(=O)O)c3)n2)cc1 (centres unmarked) [Example 17, 3-(6-Aminopyridin-3-yl)-2-{1-[3-(4′-tert-butylphenyl)-[1,2,4]oxadiazol-5-ylmethyl]-1H-imidazol-4-yl}propionic acid] | 0.745
8 | Cc1nc(-c2cc(Cn3cnc(C(Cc4ccc(N)nc4)C(=O)O)c3)no2)cs1 (centres unmarked) [Example 18, 3-(6-Aminopyridin-3-yl)-2-{1-[5-(2-methylthiazol-4-yl)isoxazol-3-ylmethyl]-1H-imidazol-4-yl}propionic acid] | 0.326
9 | Cc1cc(CC(C(=O)O)c2cn(Cc3nnc(C4CC4)s3)cn2)cnc1N (centres unmarked) [Example 61, 3-(6-Amino-5-methylpyridin-3-yl)-2-[1-(5-cyclopropyl-[1,3,4]thiadiazol-2-ylmethyl)-1H-imidazol-4-yl]propionic acid] | 0.026
10 | Nc1ccc(CC(C(=O)O)c2cn(Cc3cc(-c4ccc(Cl)s4)on3)cn2)cn1 (centres unmarked) [Example 1, 3-(6-Aminopyridin-3-yl)-2-{1-[5-(5-chlorothiophen-2-yl)isoxazol-3-ylmethyl]-1H-imidazol-4-yl}propionic acid] | 0.041
11 | Nc1ccc(C[C@H](C(=O)O)c2cn(Cc3cc(-c4ccc(Cl)s4)on3)cn2)cn1 [Example 58, (S)-3-(6-Aminopyridin-3-yl)-2-{1-[5-(5-chlorothiophen-2-yl)isoxazol-3-ylmethyl]-1H-imidazol-4-yl}propionic acid] | 0.004
12 | Nc1ccc(CC(C(=O)O)c2cn(Cc3cnc(-c4ccc(Cl)s4)s3)cn2)cn1 (centres unmarked) [Example 3, 3-(6-Aminopyridin-3-yl)-2-{1-[2-(5-chlorothiophen-2-yl)thiazol-5-ylmethyl]-1H-imidazol-4-yl}propionic acid] | 0.326
13 | CC(C)(C)c1nnc(Cn2cnc(C(Cc3ccc(N)nc3)C(=O)O)c2)s1 (centres unmarked) [Example 9, 3-(6-Aminopyridin-3-yl)-2-[1-(5-tert-butyl-[1,3,4]thiadiazol-2-ylmethyl)-1H-imidazol-4-yl]propionic acid] | 0.169
14 | Nc1ccc(CC(C(=O)O)c2cn(Cc3nnc(-c4ccc(Cl)cc4)s3)cn2)cn1 (centres unmarked) [Example 8, 3-(6-Aminopyridin-3-yl)-2-{1-[5-(4-chlorophenyl)-[1,3,4]thiadiazol-2-ylmethyl]-1H-imidazol-4-yl}propionic acid] | 0.041
